Patent US6680282B2 (priority 1997, dated 2004)

Legend:
Pyricularia oryzae [1] = assay type: cell-based; details: 100 ppm in potato dextrose agar, 28 or 22° C., 48 hours
Pyricularia oryzae [2] = assay: whole plant or invertebrate; assay type: in vivo; details: 100 ppm spray, rice seedling (Jikkoku) 4-leaf stage, lesion number on fourth leaf 6 days after inoculation
Botrytis cinerea = assay type: cell-based; details: 100 ppm in potato dextrose agar, 28 or 22° C., 48 hours
Method: (§1) Test for Antifungal Activity
(§2) A test compound dissolved in acetone was mixed in a potato dextrose agar medium (manufactured by Nissui Seiyaku K. K.) so that the final concentration of the test compound was 100 ppm and then poured in a Petri dish. To this Perti dish after the agar was completely solidified, a cylindrical section prepared by punching a mycelial colony of each of plant pathogenic fungi cultured in another Petri dish by means of a cork borer was inoculated and cultured at 28 or 22° C. 48 Hours after the inoculation, the diameter of the mycelial colony was determined. Control percentages were calculated by comparing the diameter of the mycelial colony in a treated area with that in an untreated area. And, antifungal effect was ranked according to the following criterion.
(§3) A; control percentage ≧80%
(§4) B; control percentage 50 to 79%
(§5) C; control percentage <50%

Gibberella fujikuroi = assay type: cell-based; details: 100 ppm in potato dextrose agar, 28 or 22° C., 48 hours
Method: as §1, §2, §3, §4, §5

Sclerotinia minor = assay type: cell-based; details: 100 ppm in potato dextrose agar, 28 or 22° C., 48 hours
Method: as §1, §2, §3, §4, §5

Glomerella cingalata = assay type: cell-based; details: 100 ppm in potato dextrose agar, 28 or 22° C., 48 hours
Method: as §1, §2, §3, §4, §5

Verticillium aibo-atrum = assay type: cell-based; details: 100 ppm in potato dextrose agar, 28 or 22° C., 48 hours
Method: as §1, §2, §3, §4, §5

[3] = system: Colletotrichum atramentarium; assay type: cell-based; details: 100 ppm in potato dextrose agar, 28 or 22° C., 48 hours
Method: as §1, §2, §3, §4, §5

[4] = system: Fusarium oxysporum f. sp. lycopersici; assay type: cell-based; details: 100 ppm in potato dextrose agar, 28 or 22° C., 48 hours
Method: as §1, §2, §3, §4, §5

Rhizoctonia solani = assay type: cell-based; details: 100 ppm in potato dextrose agar, 28 or 22° C., 48 hours
Method: as §1, §2, §3, §4, §5

[5] = system: Alternaria alternata Japanese pear pathotype; assay type: cell-based; details: 100 ppm in potato dextrose agar, 28 or 22° C., 48 hours
Method: as §1, §2, §3, §4, §5

Cochlioborus miyabeanus = assay type: cell-based; details: 100 ppm in potato dextrose agar, 28 or 22° C., 48 hours
Sphaerotheca fuliginea = assay: Test for control effect against powdery mildew of Cucurbitaceae (spray on cucumber seedlings); assay type: in vivo; details: 200 ppm spray, cucumber first foliage leaf, 10 days after inoculation
Description: Test for Control Effect Against Powdery Mildew of Cucurbitaceae
A spray liquid comprising a test compound whose concentration was adjusted to be 200 ppm by dilution with water was sprayed to a cucumber grown in a vinyl pot of 3 cm in diameter when its first foliage leaf was developed. The air-dried cucumber seedling was inoculated with a conidium suspension of Sphaerotheca fuliginea. Thereafter, the cucumber seedling was transferred in an air-conditioned greenhouse. 10 Days after the inoculation, the disease severity was observed. The protective value was calculated by comparing the disease severity in a treated area with that in an untreated area. Then, control effect was ranked according to the following criterion.
B; protective value 50 to 79%

| Compound | rank (antifungal effect, control percentage of mycelial colony diameter) (Pyricularia oryzae [1]) | rank (control effect, protective value from lesion number) (Pyricularia oryzae [2]) | rank (antifungal effect, control percentage of mycelial colony diameter) (Botrytis cinerea) | rank (antifungal effect, control percentage of mycelial colony diameter) (Gibberella fujikuroi) | rank (antifungal effect, control percentage of mycelial colony diameter) (Sclerotinia minor) | rank (antifungal effect, control percentage of mycelial colony diameter) (Glomerella cingalata) | rank (antifungal effect, control percentage of mycelial colony diameter) (Verticillium aibo-atrum) | rank (antifungal effect, control percentage of mycelial colony diameter) [3] | rank (antifungal effect, control percentage of mycelial colony diameter) [4] | rank (antifungal effect, control percentage of mycelial colony diameter) (Rhizoctonia solani) | rank (antifungal effect, control percentage of mycelial colony diameter) [5] | rank (antifungal effect, control percentage of mycelial colony diameter) (Cochlioborus miyabeanus) | rank (control effect, protective value from disease severity) (Sphaerotheca fuliginea) |
| --- | --- | --- | --- | --- | --- | --- | --- | --- | --- | --- | --- | --- | --- |
| CCCCc1ccc2nc(C)c(C)c(O)c2c1 [Compound No. 28] | B (control percentage 50 to 79%) | A (protective value ≧80%) | C (control percentage <50%) | C (control percentage <50%) | C (control percentage <50%) | B (control percentage 50 to 79%) | A (control percentage ≧80%) | B (control percentage 50 to 79%) | C (control percentage <50%) | C (control percentage <50%) | C (control percentage <50%) | C (control percentage <50%) | – |
| CCCCc1ccc2nc(C)c(C)c(OC(=O)C3CC3)c2c1 [compound 31] | A (control percentage ≧80%) | A (protective value ≧80%) | A (control percentage ≧80%) | A (control percentage ≧80%) | B (control percentage 50 to 79%) | A (control percentage ≧80%) | A (control percentage ≧80%) | A (control percentage ≧80%) | A (control percentage ≧80%) | C (control percentage <50%) | A (control percentage ≧80%) | A (control percentage ≧80%) | – |
| CCCCc1ccc2nc(C)c(C)c(OC(C)=O)c2c1 [Compound No. 29] | A (control percentage ≧80%) | A (protective value ≧80%) | B (control percentage 50 to 79%) | B (control percentage 50 to 79%) | C (control percentage <50%) | A (control percentage ≧80%) | A (control percentage ≧80%) | B (control percentage 50 to 79%) | B (control percentage 50 to 79%) | C (control percentage <50%) | C (control percentage <50%) | B (control percentage 50 to 79%) | B (protective value 50 to 79%) |
